Like-named read-outs stand apart in the source and are kept apart here.
Experiments:
mIDH1 = settings: cited from earlier work
IDH1 R132H = molecular target: T1, IDH1 R132H (Homo sapiens, UniProt O75874, R132H); assay: Mutant IDH1 enzyme assay (diaphorase/resazurin), IDH1 R132H; type: biochemical; settings: for IC50: mean ± SD of at least three determinations
T1 construct: purchased BPS Bioscience BPS-79376
Procedure: (§1) The amount of NADPH remaining at the end of the reaction time is measured in a secondary diaphorase/resazurin reaction in which the NADPH is consumed in a 1:1 molar ratio with the conversion of resazurin to the highly fluorescent resorufin. […] For inhibition assays, triplicate samples of the compounds in the concentration range from 10^−5 to 10^−10 M were incubated with the enzyme for 30 min prior to addition of α-KG and NADPH to initiate the reaction. The reaction ran for 60 min at room temperature and was terminated with the addition of 25 μL of Detection Buffer (36 μg/mL diaphorase, […]) to 50 µL of the reaction solution. […] The data were imported into GraphPad Prism 4.1 (GraphPad Inc.; La Jolla; CA, USA), and the IC50 values were calculated with a standard dose–response curve fitting (Figure S3).

wt IDH2 = molecular target: T2, wt IDH2 (Homo sapiens, UniProt P48735); assay: wt IDH enzyme assay, wt IDH2; type: biochemical; settings: mean of at least three determinations
T2 construct: purchased BPS Bioscience
T2 sequence (P48735 40-452): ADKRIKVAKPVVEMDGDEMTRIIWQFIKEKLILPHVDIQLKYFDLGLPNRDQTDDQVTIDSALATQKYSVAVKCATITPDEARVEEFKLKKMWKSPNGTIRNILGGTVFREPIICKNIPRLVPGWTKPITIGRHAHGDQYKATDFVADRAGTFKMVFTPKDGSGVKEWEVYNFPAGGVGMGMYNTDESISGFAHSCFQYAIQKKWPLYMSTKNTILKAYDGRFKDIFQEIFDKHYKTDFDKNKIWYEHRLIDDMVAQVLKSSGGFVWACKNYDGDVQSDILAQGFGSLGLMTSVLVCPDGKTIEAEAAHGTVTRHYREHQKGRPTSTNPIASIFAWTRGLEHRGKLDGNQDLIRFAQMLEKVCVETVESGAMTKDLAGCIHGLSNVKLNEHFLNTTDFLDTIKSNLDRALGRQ
Procedure: (§2) wt IDH enzyme assay is a modified version of the assay used for mIDH1. With the conversion of isocitrate to α-KG, this enzyme stoichiometrically converts NADP to NADPH. The produced NADPH, which directly couples to the diaphorase/resazurin system and the resorufin production, can be measured. The protocols for the determination of inhibition of both wt IDH1 and wt IDH2 were conducted as described by Wang et al.. The wt IDH1 (ab113858) was purchased from abcam (Cambridge, UK), and the wt IDH2, from BPS Bioscience (San Diego, CA, USA).
Assays for wt IDH2 were conducted in 50 µL buffer (20 mM TRIS buffer (pH = 7.5), 150 mM NaCl, 10 mM MgCl2, 0.05% BSA, and 4 mM β-mercaptoethanol) containing 50 µM NADP, 70 µM D/L-isocitrate, and 0.05 µg/mL wt IDH2 enzyme (reaction time 1 h at RT). For inhibition assays, triplicate samples of the compounds in the concentration range from 10^−5 to 10^−10 M were incubated with the wt IDH2 and NADP for 1 h before addition of D/L-isocitrate to initiate the reaction together with the direct detection system comprising 20 µg/mL diaphorase and 4 µM resazurin. The reaction was stopped by addition of 5 μL 10% SDS and read as described above. The data were imported into GraphPad Prism, and the IC50 values were calculated with a standard dose−response curve fitting.

wt IDH1 = molecular target: T3, wt IDH1 (Homo sapiens, UniProt O75874); assay: wt IDH enzyme assay, wt IDH1; type: biochemical; settings: mean of at least three determinations
T3 construct: purchased abcam ab113858
T3 sequence (O75874 whole entry): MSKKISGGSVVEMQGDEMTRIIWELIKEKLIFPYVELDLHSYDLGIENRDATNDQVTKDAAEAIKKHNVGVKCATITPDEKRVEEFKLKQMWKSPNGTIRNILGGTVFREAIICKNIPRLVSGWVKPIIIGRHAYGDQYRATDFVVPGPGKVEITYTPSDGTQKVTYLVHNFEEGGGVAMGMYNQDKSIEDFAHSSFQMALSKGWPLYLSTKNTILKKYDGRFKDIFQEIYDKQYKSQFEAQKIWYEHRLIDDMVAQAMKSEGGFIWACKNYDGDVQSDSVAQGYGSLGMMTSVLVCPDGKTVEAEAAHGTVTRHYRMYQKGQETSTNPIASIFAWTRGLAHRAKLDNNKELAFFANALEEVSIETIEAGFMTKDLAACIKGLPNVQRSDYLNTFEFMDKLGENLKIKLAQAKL
Procedure: as §2
Briefly, wt IDH1 assays were conducted in 50 µL buffer (20 mM TRIS buffer (pH = 7.5), 150 mM NaCl, 10 mM MgCl2, 0.05% BSA, and 4 mM β-mercaptoethanol) containing 50 µM NADP, 70 µM D/L-isocitrate, and 0.04 µg/mL wt IDH1 enzyme (reaction time 1 h at RT). For inhibition assays, triplicate samples of the compounds in the concentration range from 10^−5 to 10^−10 M were incubated with the wt IDH1 for 1 h before addition of D/L-isocitrate and NADP to initiate the reaction together with the direct detection system comprising 20 µg/mL diaphorase and 4 µM resazurin.

IDH1 R132C = molecular target: T4, IDH1 R132C (Homo sapiens, UniProt O75874, R132C); assay: Mutant IDH1 enzyme assay (diaphorase/resazurin), IDH1 R132C; type: biochemical; settings: mean ± SD of at least three determinations
T4 construct: purchased ActiveMotif ACM-31713
T4 sequence (O75874 whole entry R132C): as the sequence (O75874 whole entry) above, with R132C counted along it
Procedure: as §1

[1] = Stability of radiotracer at room temperature in ethanol, saline or DPBS (radio-HPLC); type: physicochemical
Procedure: To a solution of organotin precursor (S)-15 in methanol (50 µL, 1 mg/mL) were successively added [^125I]NaI (10-50 µL, 2.1–15.3 MBq), glacial acetic acid (2.5 µL), and a solution of CAT trihydrate (5 µL, 1 mg/mL). The reaction vial was sealed and stirred at room temperature for 5 min before addition of a solution of Na2S2O5 in deionised water (5 µL, 1 mg/mL). The reaction mixture was purified by semipreparative RP-HPLC. The collected fraction was further diluted with deionised water (10 mL) and passed through a Sep-Pak® Plus Light cartridge (beforehand conditioned successively with 10 mL of deionised water, 10 mL of methanol, and 10 mL of deionised water). The cartridge was washed with deionised water (2 mL) and dried with air before elution of the radioiodinated tracer (S)-[^125I]2 with ethanol (500 µL). The radiotracer was finally formulated in saline or DPBS (pH 7.4) to reach an ethanol content of ca. 5% for stability studies.
The aqueous solution of [^18F]F^− in [^18O]H2O was passed through an anion exchange resin (Sep-Pak® Light Accell Plus QMA carbonate cartridge) preconditioned with 10 mL of ethanol, 10 mL of an aqueous solution of lithium trifluoromethanesulfonate (90 mg/mL), and 10 mL of deionised water. Then, a solution of potassium carbonate (50 µg) and lithium trifluoromethanesulfonate (10 mg) in water (550 µL) was passed through the cartridge to elute the radioactivity to the reactor before addition of anhydrous ACN (1 mL). In such conditions, more than 97% of the radioactivity was usually recovered from the cartridge. The solution was dried by azeotropic distillation under reduced pressure and He flow at 100 °C for 12 min. After cooling to 25 °C, anhydrous DMA (2 mL) was added to the reactor. Then, 200 µL of the resulting solution (40–245 MBq, n = 10) was transferred in a glass vial equipped with a magnetic stirrer before addition of a solution of tetrakis(pyridine)copper(II) triflate (Cu(OTf)2(py)4, 14 mg, 20.6 µmol) in anhydrous DMA (250 µL) and a solution of the tin precursor (S)-15 (6.1 mg, 10.0 µmol) in anhydrous DMA (100 µL). The reaction mixture was stirred at 110 °C for 10 min. After cooling to 25 °C, deionised water (25 mL) was added, and the reaction mixture was passed through a Sep-Pak® C18 Plus Light cartridge preconditioned with 10 mL of deionised water, 10 mL of methanol, and 10 mL of deionised water. The cartridge was washed with deionised water (2 mL) and flushed with air before elution of the desired ^18F-labelled radiotracer with ACN (500 µL). For isolation of the radiotracer, the eluate was subjected to semipreparative RP-HPLC. The collected fraction was diluted with deionised water (25 mL) and passed through a Sep-Pak® C18 Plus Light cartridge preconditioned with 10 mL of deionised water, 10 mL of methanol, and 10 mL of deionised water. The cartridge was washed with deionised water (2 mL) and flushed with air before elution of the final (S)-[^18F]3 radiotracer with ethanol (500–600 µL). The radiotracer was finally formulated in saline or DPBS (pH 7.4) to reach an ethanol content of ca. 5% for stability studies.
(§3) Figure 7 Radioactivity-HPLC chromatograms of the radiotracer (S)-[^125I]2 incubated, for 1, 2, and 3 h post formulation, at room temperature in ethanol, NaCl 0.9% containing 5% ethanol, and DPBS (pH 7.4) containing 5% ethanol, as well as in a mixture of DPBS and mouse serum at 37 °C.
(§4) Figure 8 Radioactivity-HPLC chromatograms of the radiotracer (S)-[^18F]3 incubated, for 0, 1, and 2 h post formulation, at room temperature in ethanol, NaCl 0.9% containing 5% ethanol, and DPBS (pH 7.4) containing 5% ethanol, as well as in a mixture of DPBS and mouse serum at 37 °C.

[2] = Stability of radiotracer in mouse serum at 37 °C (radio-HPLC); type: in vitro ADME
Procedure: as §3, §4

[3] = phenyl-glycine scaffold, mixtures of stereoisomers, read-out: IC50 for mIDH1
[4] = butyl-phenyl sulfonamides, read-out: IC50

T1 sequence (O75874 whole entry R132H): as the sequence (O75874 whole entry) above, with R132H counted along it

| IC50 (IDH1 R132H) [µM] | IC50 (wt IDH2) [µM] | IC50 (wt IDH1) [µM] | IC50 (IDH1 R132C) [µM] | Structure (SMILES) | IC50 (mIDH1; [3]) [µM] | other results |
| --- | --- | --- | --- | --- | --- | --- |
|  |  |  |  | Cc1ccccc1C(C(=O)NC1CCCCC1)N(C(=O)Cn1ccnc1C)c1cccc([18F])c1 (stereo not shown) [III] | < 0.05 |  |
| 0.00523 ± 0.00075 | > 10 | > 10 | 0.16 ± 0.024 | C[C@H](Nc1ccc(C#N)n(C)c1=O)c1cc2cc(I)ccc2[nH]c1=O [(S)-2, (S)-5-{[1-(6-iodo-2-oxo-1,2-dihydroquinolin-3-yl)ethyl]-amino}-1-methyl-6-oxo-1,6-dihydropyridine-2-carbonitrile] |  |  |
| 0.323 ± 0.083 | > 10 | > 10 | > 10 | C[C@@H](Nc1ccc(C#N)n(C)c1=O)c1cc2cc(I)ccc2[nH]c1=O [(R)-2, (R)-5-{[1-(6-iodo-2-oxo-1,2-dihydroquinolin-3-yl)ethyl]-amino}-1-methyl-6-oxo-1,6-dihydropyridine-2-carbonitrile] |  |  |
|  |  |  |  | CCCCc1ccc(NS(=O)(=O)c2ccc(C)c(C(=O)N3CCN(c4ccccc4[125I])CC3)c2)cc1 [VI] |  | IC50 (mIDH1; [4]): 1.7 µM |
| 0.0227 ± 0.0052 | > 10 | > 10 | 0.579 ± 0.11 | C[C@H](Nc1ccc(C#N)n(C)c1=O)c1cc2cc(F)ccc2[nH]c1=O [(S)-3, (S)-5-{[1-(6-fluoro-2-oxo-1,2-dihydroquinolin-3-yl)ethyl]-amino}-1-methyl-6-oxo-1,6-dihydropyridine-2-carbonitrile] |  | decrease of inhibitory potency compared with iodinated compound (S)-2 (IDH1 R132H; IDH1 R132H): fourfold |
|  |  |  |  | Cc1ccccc1C(C(=O)NC1CCCCC1)N(C(=O)n1cnc2ccccc21)c1cccc([18F])c1 (stereo not shown) [II] | < 0.05 |  |
|  |  |  |  | N#Cc1ccnc(N2C(=O)CCC2C(=O)N(c2cncc([18F])c2)C(C(=O)NC2CC(F)(F)C2)c2ccccc2Cl)c1 (stereo not shown) [I] | < 0.05 |  |
|  |  |  |  | Cc1ccccc1C(C(=O)NC1CCCCC1)N(C(=O)Cn1ccnc1C)c1cccc([125I])c1 (stereo not shown) [IV] | < 0.05 |  |
|  |  |  |  | CCCCc1ccc(NS(=O)(=O)c2ccc(C)c(C(=O)N3CCN(c4ccccc4OCC[18F])CC3)c2)cc1 [VII] |  | IC50 (mIDH1; [4]): 2.3 µM |
|  |  |  |  | C[C@H](Nc1ccc(C#N)n(C)c1=O)c1cc2cc([125I])ccc2[nH]c1=O [(S)-[^125I]2] |  | RCP (stability) ([1]; DPBS pH 7.4, room temperature, 3 h post formulation): 97.4%; RCP (stability) ([1]; ethanolic solution eluted after C18 SPE cartridge, room temperature, 3 h post formulation): 98.0%; RCP (stability) ([1]; formulation medium (saline, ca. 5% ethanol), room temperature, 3 h post formulation): 97.2%; RCP (stability) ([2]; 3 h at 37 °C): 94.3% |
|  |  |  |  | C[C@H](Nc1ccc(C#N)n(C)c1=O)c1cc2cc([18F])ccc2[nH]c1=O [(S)-[^18F]3] |  | RCP (stability) ([1]; DPBS (pH 7.4) containing 5% ethanol, over 2 h): > 99%; RCP (stability) ([1]; NaCl 0.9% containing 5% ethanol, over 2 h): > 99%; RCP (stability) ([1]; ethanolic solution from final C18 SPE cartridge, over 2 h): > 99%; RCP (stability) ([2]; 37 °C, over 2 h): > 99% |
| 0.698 ± 0.145 | > 10 | > 10 | > 10 | C[C@@H](Nc1ccc(C#N)n(C)c1=O)c1cc2cc(F)ccc2[nH]c1=O [(R)-3, (R)-5-{[1-(6-fluoro-2-oxo-1,2-dihydroquinolin-3-yl)ethyl]-amino}-1-methyl-6-oxo-1,6-dihydropyridine-2-carbonitrile] |  |  |

— publication PMC9228733, “Novel Radioiodinated and Radiofluorinated Analogues of FT-2102 for SPECT or PET Imaging of mIDH1 Mutant Tumours” (Molecules, 2022)
